Reference: PubChem BioAssay AID1963981 (Molecular Pharmacology Branch, DTP, NCI, 2024)

Tested on: 354836-022-R-J1-PDC multicell spheroid viability
Test: Anticancer human tumor 354836-022-R-J1-PDC patient-derived head and neck squamous cell carcinoma cell line growth inhibition [PI3K]
Details: for IC50: curve of first compound; for viability, T/C: stronger effect = lower value
Method in brief: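 Targeted small molecules plus PI3K inhibitors, half-log dose series from Cmax (default top 10 microM), were applied to heterotypic spheroids of cancer cells with HUVEC and MSCs. Viability indicated growth inhibition.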

[1] = second compound 0.00316 µM, first compound 0.0316 µM
[2] = second compound 0.00316 µM, first compound 0.1 µM
[3] = second compound 0.01 µM, first compound 0.0316 µM
[4] = second compound 0.01 µM, first compound 0.1 µM
[5] = second compound 0.0316 µM, first compound 0.0316 µM
[6] = second compound 0.0316 µM, first compound 0.1 µM
[7] = second compound 0.1 µM, first compound 0.0316 µM
[8] = second compound 0.1 µM, first compound 0.1 µM
[9] = second compound 0.316 µM, first compound 0.0316 µM
[10] = second compound 0.316 µM, first compound 0.1 µM
[11] = second compound 1 µM, first compound 0.0316 µM
[12] = second compound 1 µM, first compound 0.1 µM
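Also: spheroids exposed to agents for seven days before the viability read.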

C[C@@H](NC(=O)c1ncnc(N)c1Cl)c1ncc(C(=O)Nc2cc(C(F)(F)F)c(Cl)cn2)s1 + CC(Nc1ccc2c(c1)OCCn1cc(N3C(=O)OCC3C(F)F)nc1-2)C(N)=O
IC50 (second compound 0.00316 µM): > 10 µM
IC50 (second compound 0.01 µM): > 10 µM
IC50 (second compound 0.0316 µM): > 10 µM
IC50 (second compound 0.1 µM): > 10 µM
IC50 (second compound 0.316 µM): > 10 µM
IC50 (second compound 1 µM): > 10 µM
viability, T/C [1]: 98.4%
viability, T/C [2]: 92.4%
viability, T/C (second compound 0.00316 µM, first compound 0.316 µM): 103%
viability, T/C (second compound 0.00316 µM, first compound 1 µM): 109%
viability, T/C (second compound 0.00316 µM, first compound 3.16 µM): 107%
viability, T/C (second compound 0.00316 µM, first compound 10 µM): 67.5%
viability, T/C [3]: 108%
viability, T/C [4]: 90.9%
viability, T/C (second compound 0.01 µM, first compound 0.316 µM): 91.4%
viability, T/C (second compound 0.01 µM, first compound 1 µM): 104%
viability, T/C (second compound 0.01 µM, first compound 3.16 µM): 110%
viability, T/C (second compound 0.01 µM, first compound 10 µM): 64.1%
viability, T/C [5]: 92.1%
viability, T/C [6]: 93.1%
viability, T/C (second compound 0.0316 µM, first compound 0.316 µM): 102%
viability, T/C (second compound 0.0316 µM, first compound 1 µM): 111%
viability, T/C (second compound 0.0316 µM, first compound 3.16 µM): 103%
viability, T/C (second compound 0.0316 µM, first compound 10 µM): 71.9%
viability, T/C [7]: 82.2%
viability, T/C [8]: 93.8%
viability, T/C (second compound 0.1 µM, first compound 0.316 µM): 94.9%
viability, T/C (second compound 0.1 µM, first compound 1 µM): 92.3%
viability, T/C (second compound 0.1 µM, first compound 3.16 µM): 88.5%
viability, T/C (second compound 0.1 µM, first compound 10 µM): 71.6%
viability, T/C [9]: 74.4%
viability, T/C [10]: 75.9%
viability, T/C (second compound 0.316 µM, first compound 0.316 µM): 82.9%
viability, T/C (second compound 0.316 µM, first compound 1 µM): 84.6%
viability, T/C (second compound 0.316 µM, first compound 3.16 µM): 88.1%
viability, T/C (second compound 0.316 µM, first compound 10 µM): 58.1%
viability, T/C [11]: 63%
viability, T/C [12]: 62.2%
viability, T/C (second compound 1 µM, first compound 0.316 µM): 62.9%
viability, T/C (second compound 1 µM, first compound 1 µM): 65.2%
viability, T/C (second compound 1 µM, first compound 3.16 µM): 74.5%
viability, T/C (second compound 1 µM, first compound 10 µM): 53.6%

Cn1ncnc1[C@H]1c2n[nH]c(=O)c3cc(F)cc(c23)N[C@@H]1c1ccc(F)cc1 + CC(Nc1ccc2c(c1)OCCn1cc(N3C(=O)OCC3C(F)F)nc1-2)C(N)=O
IC50 (second compound 0.00316 µM): > 0.1 µM
IC50 (second compound 0.01 µM): > 0.1 µM
IC50 (second compound 0.0316 µM): > 0.1 µM
IC50 (second compound 0.1 µM): > 0.1 µM
IC50 (second compound 0.316 µM): > 0.1 µM
IC50 (second compound 1 µM): > 0.1 µM
viability, T/C (second compound 0.00316 µM, first compound 0.000316 µM): 87.4%
viability, T/C (second compound 0.00316 µM, first compound 0.001 µM): 97.1%
viability, T/C (second compound 0.00316 µM, first compound 0.00316 µM): 91.6%
viability, T/C (second compound 0.00316 µM, first compound 0.01 µM): 101%
viability, T/C [1]: 120%
viability, T/C [2]: 89.8%
viability, T/C (second compound 0.01 µM, first compound 0.000316 µM): 88.4%
viability, T/C (second compound 0.01 µM, first compound 0.001 µM): 83.4%
viability, T/C (second compound 0.01 µM, first compound 0.00316 µM): 105%
viability, T/C (second compound 0.01 µM, first compound 0.01 µM): 92.6%
viability, T/C [3]: 88.3%
viability, T/C [4]: 84.3%
viability, T/C (second compound 0.0316 µM, first compound 0.000316 µM): 83%
viability, T/C (second compound 0.0316 µM, first compound 0.001 µM): 89.8%
viability, T/C (second compound 0.0316 µM, first compound 0.00316 µM): 95%
viability, T/C (second compound 0.0316 µM, first compound 0.01 µM): 111%
viability, T/C [5]: 101%
viability, T/C [6]: 75.5%
viability, T/C (second compound 0.1 µM, first compound 0.000316 µM): 87%
viability, T/C (second compound 0.1 µM, first compound 0.001 µM): 104%
viability, T/C (second compound 0.1 µM, first compound 0.00316 µM): 89.9%
viability, T/C (second compound 0.1 µM, first compound 0.01 µM): 89.1%
viability, T/C [7]: 97.8%
viability, T/C [8]: 70.3%
viability, T/C (second compound 0.316 µM, first compound 0.000316 µM): 69.1%
viability, T/C (second compound 0.316 µM, first compound 0.001 µM): 81.8%
viability, T/C (second compound 0.316 µM, first compound 0.00316 µM): 74.7%
viability, T/C (second compound 0.316 µM, first compound 0.01 µM): 72.6%
viability, T/C [9]: 78.8%
viability, T/C [10]: 60.4%
viability, T/C (second compound 1 µM, first compound 0.000316 µM): 58%
viability, T/C (second compound 1 µM, first compound 0.001 µM): 63%
viability, T/C (second compound 1 µM, first compound 0.00316 µM): 61.8%
viability, T/C (second compound 1 µM, first compound 0.01 µM): 56.8%
viability, T/C [11]: 71.9%
viability, T/C [12]: 53.4%
